Data on 14 compounds can be found in patent US10100077B2, “6-aryl-9-glycosylpurines and use thereof” (UNIVERZITA PALACKEHO V OLOMOUCI, priority 2014, dated 2018).

Data set [1] deals with Vaccinia virus and Herpes simplex virus. To be noted: cited from earlier work.
For data set [2], the system named is human erythromleukemia (K562). The data set is described as follows: Calcein AM cytotoxicity assay, K562. The class given is cell-based. To be noted: 72 hrs. The source says:
(§1) One of the parameters used as the base for cytotoxic analysis is metabolic activity of viable cells, such as microtiter assay, which uses the Calcein AM, is now widely used to quantitate cell proliferation and cytotoxicity. The quantity of reduced Calcein AM corresponds to the number of viable cells in culture. The cell lines of breast cancer (MCF-7), mousse fibroblasts (NIH3T3), human erythromleukemia (K562) were used for routine screening of cytotoxicity of the compounds. The cells were maintened in Nunc/Corning 80 cm^2 plastic bottles and grown in media for cell culture (DMEM containing 5 g/l of glucose, 2 mM of glutamin, 100 U/ml of penicilin, […] of streptomycin, 10% of fetal bovine serum and sodium hydrogencarbonate). Cell suspensions were diluted according to cell types and according to expected final cell density (10^4 of cells per well according to characteristics of cell growth), pipetted 80 μl of cell suspension on 96-well microtiter plates. Innoculates were stabilized by 24 hrs preincubation at 37° C. in CO2. Particular concentrations of tested compounds were added in time zero as 20 μl aliquotto wells of microtiter plates. Usually, the compounds were diluted into six concentrations in four-fold dilution series. In routine testing, the highest well concentration was 166.7 μM, of change dependent on the substance. All drug concentrations were examined in duplicates. The incubation of cells with tested derivatives lasted 72 hrs at 37° C., 100% humidity and in the atmosphere of CO2. At the end of the incubation period, the cells were tested and analysed according to the addition of Calcein AM (Molecular probes) solution and the incubation lasted for next 1 hour. Fluorescence (FD) was measured using Labsystem FIA reader Fluorskan Ascent (Microsystems). The survival of tumor cells (The tumor cell survival-TCS) was counted according to equation: […]=(FDwell with derivative/FDcontrol well)×100%. The value of GI50, that is equal to the concentration of compound at which 50% of tumour cells are terminated. To evaluate the antitumor activity was tested toxicity of new derivatives on panel of cell lines of different histogenetic and species origin (Tab. 7, G150 concentration given in μM). […] Effective derivatives killed tumor cells in concentrations close to 0.1 to 50. None of the newly prepared compounds only reached the value.

For data set [3], the system named is mousse fibroblasts (NIH3T3). Description: Calcein AM cytotoxicity assay, NIH3T3. The class given is cell-based, mouse. To be noted: 72 hrs.
Source text: as §1

The subject of data set [4] is breast cancer (MCF-7). The data set is described as follows: Calcein AM cytotoxicity assay, MCF-7. The class given is cell-based. As to conditions: 72 hrs.
Source text: as §1

Data set [5] is described as follows: Calcein AM cytotoxicity assay, K562. In kind it is cell-based, human. As to conditions: human, K562 erythroleukemia cells.
Source text: as §1

The nature of data set [6]: Calcein AM cytotoxicity assay, NIH3T3. The class given is cell-based, mouse. To be noted: mouse, NIH3T3 fibroblasts.
Source text: as §1

Data set [7] can be described thus: Calcein AM cytotoxicity assay, MCF-7. As to conditions: human, MCF-7 breast cancer cells. In kind it is cell-based.
Source text: as §1

The test system of data set [8] is skin fibroblasts BJ and keratinocytes HaCaT. The data set is described as follows: MTT in vitro cytotoxicity test for skin cells. The class given is cell-based. To be noted: for IC50: Homo sapiens, MTT, 72 hour treatment, BJ and HaCaT, maximal concentration 50 microM. As to the method:
MTT assay is a standard test of toxicity based on photometric measurement of the ability of metabolically active cells to reduce MTT (3-(4,5-dimethylthiazol-2-yl)-2,5-diphenyltetrazolium bromide). Using the assay, the effects of 72 hour treatments with several concentrations of the compounds (sixfold dilution, maximal concentration=50 microM) on viability of skin fibroblasts BJ and keratinocytes HaCaT were evaluated. About 5,000 cells were seeded per well of a 96-well plate 24 hours before the treatment. DMSO vehiculum was used as a negative control. After 72 hour treatment, new medium with MTT (Sigma, M2128) was added to a final concentration of 0.5 mg/ml. After 3 hours, medium was removed and resulting formazan in the cells was dissolved in DMSO. The absorbance was measured at 570 nm (640 nm reference wavelength). The IC50 values were calculated from the dose-response curves. 6-Benzylaminopurine riboside and 6-furfurylaminopurine riboside were used as positive controls they were toxic in the MTT test.

For data set [9] the test system is unchanged. The data set is described as follows: SRB in vitro toxicity test. To be noted: Homo sapiens, 72 hour treatment, maximal concentration 50 microM. The class given is cell-based. As to the method: SRB (sulforhodamine B) assay is a standard toxicity test based on a photometric measurement of the cellular protein content after the staining with sulphorhodamine B. Using the assay, the effects of 72 hour treatments with several concentrations of the compounds (sixfold dilution, maximal concentration=50 microM) on viability of skin fibroblasts BJ and keratinocytes HaCaT were evaluated. About 5,000 cells were seeded per well of a 96-well plate 24 hours before the treatment. DMSO vehiculum was used as a negative non-toxic control. 6-benzylaminopurine riboside a 6-furfurylaminopurin riboside were used as positive toxic controls. After three days the medium was removed and the cells fixed with 10% (wt/vol) trichloroacetic acid. After the extensive washing in distilled water, 0.4% (wt/vol) solution of SRB in acetic acid was added and the fixed cells were stained for 30 minutes. The unbound stain was washed away by distilled water and the bound SRB was solubilized in unbuffered 10 mM Tris base. Absorbance was measured at 564 nm. IC50 values were calculated from dose-response curves.

Data set [10] concerns detached leaf segments of Triticum aestivum cv. Hereward. Description: Senescence bioassay on wheat leaf segments (chlorophyll retention). To be noted: for activity (%) [10^−4 mol · l^−1 BAP = 100%]: chlorophyll retention at maximum effective concentration, 96 h dark. As to the method:
Seeds of winter wheat, Triticum aestivum cv. Hereward, were washed under running water for 24 hours and then sown on vermiculite soaked with Knop's solution. They were placed in the growth chamber at 25° C. with a 16/8 h light period at 50 μmol·m^−2·s^−1. After 7 days, the first leaf was fully developed and the second leaf had started to grow. A tip section of the first leaf, approximately 35 mm long, was removed from 5 seedlings and trimmed slightly to a combined weight of 100 mg. The basal ends of the five leaf tips were placed in the wells of a microtiter polystyrene plate containing 150 μL, of the tested derivative solution each. The entire plate was inserted into a plastic box lined with paper tissues soaked in distilled water to prevent leaf sections from drying out. After 96 h incubation in the dark at 25° C., the leaves were removed and chlorophyll extracted by heating at 80° C. for 10 min in 5 mL of 80% ethanol (v/v). The sample volume was then restored to 5 mL by the addition of 80% ethanol (v/v). The absorbance of the extract was recorded at 665 nm. In addition, chlorophyll extracts from fresh leaves and leaf tips incubated in deionised water were measured. The results are means of five replicates and the entire test was repeated twice. […] The compounds to be tested were dissolved in dimethylsulfoxide (DMSO) and the solution brought up to 10^−3M with distilled water. This stock solution was further diluted with the respective media used for the biotest to a concentration ranging from 10^−8M to 10^−4M. […] The activity obtained for 10^−4 M of BAP was postulated as 100%.

Turning to `Cc1cccc(CNc2ncnc3c2ncn3C2OC(CO)C(O)C2O)c1C` (stereo not shown) [2,3-dimethylbenzyl], the “activity in killing Vaccinia virus and Herpes simplex virus” value in [1] is “No effect”.
Regarding `Cc1cccc(C)c1CNc1ncnc2c1ncn2[C@@H]1O[C@H](CO)[C@@H](O)[C@@H]1O` [2,6-dimethylbenzyl], in data set [1], the “activity in killing Vaccinia virus and Herpes simplex virus” value was “No effect”.
As to `Cc1ccccc1CNc1ncnc2c1ncn2[C@@H]1O[C@H](CO)[C@@H](O)[C@@H]1O` [2-methylbenzylamino-9-β-D-arabinofuranosylpurine], the 50% growth inhibitory concentration (GI50) in [2], in data set [3] and in data set [4] was greater than 100 µM throughout. Besides, the “activity in killing Vaccinia virus and Herpes simplex virus” value in [1] is given as “No effect”.
Regarding `Cc1ccc(CNc2ncnc3c2ncn3[C@@H]2O[C@H](CO)[C@@H](O)[C@@H]2O)cc1C` [3,4-dimethylbenzyl], the “activity in killing Vaccinia virus and Herpes simplex virus” value in data set [1] is on record as “No effect”.
Turning to `OC[C@H]1O[C@@H](n2cnc3c(NCc4cccc(F)c4)ncnc32)C[C@@H]1O` [3-fluorobenzylamino-9-β-D-2′-deoxyribosylpurine], the 50% growth inhibitory concentration (GI50) in [2], in [3] and in data set [4] was greater than 100 µM in each case.
`OC[C@H]1O[C@@H](n2cnc3c(NCc4cccc(O)c4)ncnc32)C[C@@H]1O` [3-hydroxybenzylamino-9-β-D-2′-deoxyribosylpurine]: the GI50 in [2], in data set [3] and in data set [4] was greater than 100 µM in each case.
Consider `Cc1cccc(CNc2ncnc3c2ncn3[C@@H]2O[C@H](CO)[C@@H](O)[C@@H]2O)c1` [3-methylbenzylamino-9-β-D-arabinofuranosylpurine], for which the GI50 in [2], in data set [3] and in data set [4] was greater than 100 µM throughout. Moreover, the “activity in killing Vaccinia virus and Herpes simplex virus” value in [1] is listed as “No effect”.
Take `OC[C@H]1O[C@@H](n2cnc3c(NCc4ccc(Cl)cc4)ncnc32)[C@@H](O)[C@@H]1O` [4-chlorobenzylamino-9-β-D-arabinofuranosylpurine]: the GI50 in [2], in [3] and in data set [4] was greater than 100 µM each time.
In the case of `OC[C@H]1O[C@@H](n2cnc3c(NCc4ccc(O)cc4)ncnc32)[C@@H](O)[C@@H]1O` [4-hydroxybenzylamino-9-β-D-arabinofuranosylpurine], the GI50 – broadly, the concentration at which growth is held to half of that of the control – in [2] is greater than 100 µM; in data set [3], 87 µM; in data set [4], greater than 100 µM.
On to `Cc1ccc(CNc2ncnc3c2ncn3[C@@H]2O[C@H](CO)[C@@H](O)[C@@H]2O)cc1` [4-methylbenzylamino-9-β-D-arabinofuranosylpurine], for which the 50% growth inhibitory concentration (GI50) in data set [2] is greater than 100 µM; in data set [3] it was greater than 100 µM; in data set [4], 95 µM.
For the compound `OC[C@H]1O[C@@H](n2cnc3c(NCc4cccc(Cl)c4)ncnc32)[C@@H](O)[C@@H]1O` [6-(3-chlorobenzylamino)-9-β-D-arabinofuranosylpurine], the GI50 at 72 h in data set [5], in data set [6] and in data set [7] was greater than 100 µM throughout. Further, the results for the IC50 in data set [8] and in [9] were greater than 50 µM and 48 µM, respectively. Further, the “activity (%) [10^−4 mol · l^−1 BAP = 100%]” value (“activity (%)” for short) in data set [10] came out at 172 ± 8%.
As for `OC[C@H]1O[C@@H](n2cnc3c(NCc4cccc(F)c4)ncnc32)[C@@H](O)[C@@H]1O` [6-(3-fluorobenzylamino)-9-β-D-arabinofuranosylpurine], the GI50 at 72 h in data set [5], in data set [6] and in data set [7] was greater than 100 µM each time. In [10], the “activity (%)” value was found to be 195 ± 6%.
Regarding `OC[C@H]1O[C@@H](n2cnc3c(NCc4ccccc4)ncnc32)C[C@@H]1O` [6-benzylamino-9-β-D-deoxyribosylpurine], the GI50 in data set [2], in data set [3] and in data set [4] was greater than 100 µM throughout. The maximum effective concentration in data set [10] (96 h in the dark at 25° C.) is on record as 10^−4 mol · l^−1. In addition, the “activity (%)” value in data set [10] is 178 ± 9%.
For `OC[C@H]1OC(n2cnc3c(NCc4ccccc4)ncnc32)[C@H](O)[C@@H]1O` (stereo partly shown) [6-benzylaminopurin9-ribosylpurine, 6-benzylamino-9-ribosylpurine, reference compound], the GI50 at 72 h in [5] is 5.5 µM; in data set [6], 39 µM; in data set [7], 5.4 µM. Further, the IC50 (usually the concentration that inhibits the measured activity by half) in data set [8] was no more than 3 µM. Also, the “toxicity in the MTT test” value in data set [8] (positive controls) is recorded as “toxic”.
